From article PMC2577671, “Evaluation of Dimebon in cellular model of Huntington's disease” (Molecular Neurodegeneration, 2008)

Biological target: T1, α1D-Adrenergic receptor (Homo sapiens, UniProt P25100)
T1 construct: gene ADRA1D
Test: MDS Pharma Services binding screen at […]

T1 sequence (P25100 whole entry): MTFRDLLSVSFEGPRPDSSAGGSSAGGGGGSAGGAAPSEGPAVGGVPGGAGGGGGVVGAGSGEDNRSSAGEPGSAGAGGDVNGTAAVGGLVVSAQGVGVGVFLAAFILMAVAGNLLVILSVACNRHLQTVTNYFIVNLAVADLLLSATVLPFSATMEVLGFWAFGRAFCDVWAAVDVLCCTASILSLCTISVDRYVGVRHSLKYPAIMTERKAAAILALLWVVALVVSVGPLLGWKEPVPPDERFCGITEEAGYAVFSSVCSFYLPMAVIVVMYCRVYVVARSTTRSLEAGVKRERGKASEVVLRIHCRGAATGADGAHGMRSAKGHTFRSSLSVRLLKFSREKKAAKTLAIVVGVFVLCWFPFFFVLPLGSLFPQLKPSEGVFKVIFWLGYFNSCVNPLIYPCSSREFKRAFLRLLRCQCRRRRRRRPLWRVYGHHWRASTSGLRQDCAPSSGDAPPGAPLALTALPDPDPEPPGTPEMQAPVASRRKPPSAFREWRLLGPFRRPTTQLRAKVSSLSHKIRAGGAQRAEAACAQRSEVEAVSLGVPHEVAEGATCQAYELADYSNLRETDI

`Cc1ccc2c(c1)c1c(n2CCc2ccc(C)nc2)CCN(C)C1` [Dimebon, 2,3,4,5-Tetrahydro-2,8-dimethyl-5-(2-(6-methyl-3-pyridyl)ethyl)-1H-pyrido(4,3-b)indole] was tested, and the inhibition at 10 µM was greater than 90%.
